Test results from US6482799B1, “Self-preserving multipurpose ophthalmic solutions incorporating a polypeptide antimicrobial” (The Regents of the University of California, priority 1999, dated 2002).

Columns and labels:
[1] = tested on: P. aeruginosa (ATCC 9027); assay: Protocol 3 time-dependent antimicrobial activity at one dose level; assay type: cell-based, Pseudomonas aeruginosa
Procedure: The objective of this protocol is to establish a procedure for determining the antimicrobial activity of indolicidin (e.g., L-IND) at 50 μg/ml over an extended exposure time up to 24 hours at room temperature. It is believed that this procedure more closely mimics the recommended use of lens-care products.
Exposure of the test organism to indolicidin occurs in a buffered solution for up to 24 hours with sampling for viability at different time intervals. Polypropylene 96-well microtiter plates and microcentrifuge tubes are used for exposure and dilution of indolicidin, respectively.
The following materials are used: sterile glass tubes containing 5 ml of Mueller-Hinton Broth (MHB), Mueller-Hinton agar plates, sterile 96-well polypropylene microtiter plates, and sterile polypropylene microcentrifuge tubes.
One or more of the following microorganisms are used in assays using this protocol or modification of this protocol: Pseudomonas aeruginosa (ATCC 9027), Pseudomonas aeruginosa (ATCC 27853), and S. aureus (ATCC 6538).
Five 5 ml of MHB tubes are innoculated with the tester strain(s) from MHA plates and grown overnight at 37° C. on a shaker (180 rpm). A micropipet tip is prewet for at least 2 minutes with 100 μl of the stock solution of indolicidin (e.g., L-IND). The test article is dispensed back in the stock solution vial and the pipette is reset to a volume of 10 μl. Polypropylene microcentrifuge tubes are used to dilute the stock of indolicidin (10 mg/ml) 10-fold in sterile water. To obtain a 10× solution of indolicidin with a dose level equivalent to 50 μg/ml dose level dilute 10 μl of the stock solution of indolicidin in 90 μl of sterile water. (The concentration of indolicidin in the final exposure volume of […] will be 5 μg when 10 μl of the 10× solution is added to 100 μl of bacterial suspension). The overnight cultures are washed twice in sterile saline and resuspend in appropriate buffer. The washed culture is diluted in the appropriate buffer to give an estimated 10^6 CFU/ml. Then 10 μl of the 10× test peptide dilutions are added to a predetermined number of wells in the polypropylene microtiter plate. 100 μl of the bacterial suspension is dispensed to the wells in the polypropylene microtiter plate containing the test chemical and mixed well. Controls include one well each for negative controls, i.e., bacteria only sampled at the initiation of the experiment and at the completion of the experiment. The microtiter plate is covered with aluminum foil to shield the exposure mixture from direct light and placed on the bench top at room temperature. At the end of each time interval, the mixture is diluted in an appropriate sterile buffer and plated for viable counts.
Survival is determined by counting the colonies appearing on plates after overnight incubation at 37° C. The results are expressed as CFU/ml and survival is expressed as the percent of the bacteria that survived the treatment.
The purpose of this experiment was to repeat Experiment 4 under identical conditions using P. aeruginosa 9027, with the exception of one additional time point of 60 minutes. The culture was washed 2 times in 10 mM sodium phosphate buffer, pH 7.4.
Protocol 3 was used with the modifications described above. The test organism was P. aeruginosa 9027. L-indolicidin was tested at 50 μg/ml only. Sterile water was used as a solvent for L-IND. 10 mM sodium phosphate buffer, pH 7.4 was used as a vehicle for exposure of bacteria to L-IND. Final incubation volume in polypropylene microtiter plates was 110 μl, and incubation times were 0, 1, 2, 5 and 15 and 60 minutes at room temperature.
This experiment was a repeat of Experiment 6 using the same exposure protocol, but with a prolonged exposure time, namely 24 hours, and using washed cells of an 18-hour old overnight culture of P. aeruginosa inoculated in Mueller-Hinton broth. Incubation times were 0 and 24 hours, at room temperature. […]

[2] = Toxicity study, intraperitoneal administration
Procedure: The objective of this study was to determine if the treatment regimen proposed for the efficacy study of the defensin formulations caused target organ toxicity. This study is not intended to support application for research or marketing permits for products regulated by governmental agencies. The purpose of this study is to provide range-finding data is therefore, not within the scope of Good Laboratory Practice Guidelines.
Mice were treated by intravaginal administration twice daily at ˜12 hour intervals administered on Days 1 through 4. Mice were treated intraperitoneally three times on Day 1 at ˜4 hour intervals, and twice daily at ˜12 hour intervals administered on days 2 through 4.
Dosing volumes were 0.1 mL/mouse (intravaginal), 0.1 mL/mouse (intraperitoneal), and 20 μL/rabbit. The study lasted 5 days, with day 1 the first day of dose administration.
The dose formulations were supplied in pyrogen-free saline.

`CC[C@H](C)[C@H](N)C(=O)N[C@@H](CC(C)C)C(=O)N1CCC[C@H]1C(=O)N[C@@H](Cc1c[nH]c2ccccc12)C(=O)N[C@@H](CCCCN)C(=O)N[C@@H](Cc1c[nH]c2ccccc12)C(=O)N1CCC[C@H]1C(=O)N[C@@H](Cc1c[nH]c2ccccc12)C(=O)N[C@@H](Cc1c[nH]c2ccccc12)C(=O)N1CCC[C@H]1C(=O)N[C@@H](Cc1c[nH]c2ccccc12)C(=O)N[C@@H](CCCNC(=N)N)C(=O)N[C@@H](CCCNC(=N)N)C(N)=O` [L-indolicidin, H2N-ILPWKWPWWPWRR-CONH2] showed a survival ([1]; 50 μg/ml, 10 mM sodium phosphate buffer, 1, 2 and 5 minutes, room temperature) of 100%, a survival ([1]; 50 μg/ml, 10 mM sodium phosphate buffer, 15 minutes) of 19% and a survival reduction ([1]; 50 μg/ml, 10 mM sodium phosphate buffer, 60 min) of about 2 logs. For the same molecule, the survival ([1]; 50 μg/ml, 10 mM sodium phosphate buffer, 24 hours, room temperature) was “no apparent survival”, the log cell reduction ([1]; 50 μg/ml, 10 mM sodium phosphate buffer, as early as after 1 minute exposure, initial 2.0×10^6 CFU/ml) was about 6 log and the survival ([1]; 50 μg/ml, 10 mM sodium phosphate buffer, exposure time 0 hr) was 1.2 × 10^6 CFU/ml. The survival ([1]; 50 μg/ml, 10 mM sodium phosphate buffer, exposure time 1 hr) was 6.5 × 10^5 CFU/ml, the survival ([1]; 50 μg/ml, 10 mM sodium phosphate buffer, exposure time 2 hr) was 1.1 × 10^4 CFU/ml and the survival ([1]; 50 μg/ml, 10 mM sodium phosphate buffer, exposure time 4 hr) was 0 CFU/ml. The survival ([1]; 50 μg/ml, 10 mM sodium phosphate buffer, exposure time 6 hr) was 0 CFU/ml, the survival ([1]; 50 μg/ml, 10 mM sodium phosphate buffer, exposure time 12 hr) was 0 CFU/ml and the survival ([1]; 50 μg/ml, 10 mM sodium phosphate buffer, up to 15 minutes) was 100%. The survival ([1]; 50 μg/ml, 100 mM sodium phosphate buffer pH 7.4, all time points 0-24 hours) was “no survival”, the viability decrease ([1]; 50 μg/ml, 100 mM sodium phosphate buffer, 1 and 2 minutes) was “about 1 log” and the colonies on plates ([1]; 50 μg/ml, 100 mM sodium phosphate buffer, 15 and 60 minutes) was “No colonies”. The “colonies on plate seeded with 0.1 ml undiluted exposure mixture” value ([1]; 50 μg/ml, 100 mM sodium phosphate buffer, 5 minutes) was 34 colonies, the “Bacterial growth, Buffer and L-indolicidin 50 μg/ml” value ([1]; 100 mM sodium phosphate buffer, incubation time 0 hr) was 0 and the “Bacterial growth, Buffer and L-indolicidin 50 μg/ml” value ([1]; 100 mM sodium phosphate buffer, incubation time 24 hr) was 0. The survival ([1]; 50 μ/ml, 10 mM sodium phosphate buffer, after 4 hours exposure) was “no detectable survival”, the gross alterations ([2]; 0.1 mL/mouse at 10, 100 or 1000 μg/mL, BPN-A-amide at 30, 300 or 3000 μg/mL) was “no gross alternations” and the “deaths or clinical signs of toxicity” value ([2]; L-indolicidin 10, 100 or 1000 μg/mL, D-indolicidin 10 or 1000 μ/mL, All-Phe-indolicidin 10 μg/mL, BPN-A-amide 30, 300 or 3000 μg/mL) was “no deaths or biologically significant clinical signs of toxicity”.
